According to the supplement of paper PMC10307832:

Key:
Experiment in all cases: relative viability (nuclei count vs DMSO), 5 days (fraction); higher = more cells survive
[1] = compound: C1/C(=C\C2=CC=CS2)/C(=O)/C(=C/C3=CC=CS3)/C1 + CC(=O)c1c(C)c2cnc(Nc3ccc(N4CCNCC4)cn3)nc2n(C2CCCC2)c1=O [Palbociclib] (partner 0.5 µM)
Summary of the method: (§1)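 One day after seeding in 1536-well plates, lung cancer cell lines were dosed by pin tool. Dosing was either single-drug or a fixed anchor-drug dose plus five library-drug doses (not always all listed) in √10 steps. After 5 days, nuclei were stained in one fix-and-stain step and counted on 4× images, and relative viability is the nuclei count of treated wells over that of vehicle wells, given as the median of duplicate plates.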

[2] = compound: C1=CC(=CC=C1C2=CC(=C(S2)NC(=O)N)C(=O)N)F [TPCA-1] + NC(=O)Nc1cc(-c2cccc(F)c2)sc1C(=O)N[C@H]1CCCNC1 [AZD7762] (partner 0.2 µM)
Summary of the method: as §1

[3] = compound: C1/C(=C\C2=CC=CS2)/C(=O)/C(=C/C3=CC=CS3)/C1 + Cc1nc(Nc2ncc(C(=O)Nc3c(C)cccc3Cl)s2)cc(N2CCN(CCO)CC2)n1 [Dasatinib] (partner 0.075 µM)
Summary of the method: as §1

[4] = compound: C1=CC(=CC=C1C2=CC(=C(S2)NC(=O)N)C(=O)N)F [TPCA-1] + COc1cccc2cc(-c3nc([C@H]4CC[C@H](C(=O)O)CC4)n4ncnc(N)c34)[nH]c12 [OSI-027] (partner 0.5 µM)
Summary of the method: as §1

Row | Cell Line | relative viability ([1]; first compound 0.2 µM) | relative viability ([1]; first compound 0.6325 µM) | relative viability ([1]; first compound 2 µM) | relative viability ([1]; first compound 6.325 µM) | relative viability ([1]; first compound 20 µM) | relative viability ([2]; first compound 0.04 µM) | relative viability ([2]; first compound 0.1265 µM) | relative viability ([2]; first compound 0.4 µM) | relative viability ([2]; first compound 1.265 µM) | relative viability ([2]; first compound 4 µM) | relative viability ([3]; first compound 0.2 µM) | relative viability ([3]; first compound 0.6325 µM) | relative viability ([3]; first compound 2 µM) | relative viability ([3]; first compound 6.325 µM) | relative viability ([3]; first compound 20 µM) | relative viability ([4]; first compound 0.04 µM) | relative viability ([4]; first compound 0.1265 µM) | relative viability ([4]; first compound 0.4 µM) | relative viability ([4]; first compound 1.265 µM) | relative viability ([4]; first compound 4 µM)
1 | 201T | 0.348 | 0.37 | 0.349 | 0.353 | 0.348 | 0.704 | 0.63 | 0.627 | 0.582 | 0.558 | 0.633 | 0.523 | 0.529 | 0.493 | 0.612 | 0.781 | 0.751 | 0.782 | 0.669 | 0.484
2 | A-427 | 0.546 | 0.552 | 0.519 | 0.481 | 0.5 | 0.881 | 0.801 | 0.89 | 0.811 | 0.624 | 0.841 | 0.721 | 0.644 | 0.722 | 0.708 | 0.528 | 0.359 | 0.546 | 0.332 | 0.195
3 | ABC-1 | 0.707 | 0.614 | 0.886 | 0.64 | 0.513 |  | 0.606 | 0.935 | 0.836 | 0.945 | 0.648 | 0.576 | 0.626 | 0.7 | 0.701 | 0.592 | 0.515 | 0.62 | 0.475 | 0.293
4 | BEN | 0.504 | 0.531 | 0.511 | 0.411 | 0.518 | 0.677 | 0.665 | 0.9 | 1.08 | 0.505 | 0.325 | 0.38 | 0.316 | 0.35 | 0.298 | 0.261 | 0.269 | 0.303 | 0.346 | 0.242
5 | CAL-12T | 0.531 | 0.654 | 0.555 | 0.49 | 0.489 | 0.702 | 0.583 | 0.667 | 0.565 | 0.555 | 0.513 | 0.504 | 0.566 | 0.341 | 0.48 | 0.678 | 0.614 | 0.664 | 0.523 | 0.185
6 | COR-L23 | 0.333 | 0.283 | 0.338 | 0.294 | 0.297 |  |  |  |  |  | 0.571 | 0.48 | 0.571 | 0.429 | 0.492 | 0.749 | 0.706 | 0.823 | 0.683 | 0.286
7 | COR-L 105 | 0.379 | 0.405 | 0.443 | 0.43 | 0.401 |  |  |  |  |  | 0.453 | 0.341 | 0.339 |  | 0.302 | 0.646 | 0.602 | 0.707 | 0.649 | 0.396
8 | ChaGo-K-1 | 0.956 | 0.954 | 0.84 | 0.719 | 0.479 | 0.869 | 0.883 | 0.904 | 0.8 | 0.522 | 0.546 | 0.669 | 0.592 | 0.51 | 0.286 | 0.652 | 0.518 | 0.617 | 0.577 | 0.276
9 | EKVX | 0.383 | 0.388 | 0.367 |  | 0.409 | 0.739 |  | 0.813 | 0.669 | 0.677 | 0.556 | 0.433 | 0.519 |  | 0.459 | 0.806 | 0.671 | 0.771 | 0.626 | 0.586
10 | EMC-BAC-2 | 0.548 | 0.549 | 0.526 | 0.472 | 0.518 | 1.15 | 1.09 | 1.27 | 1.03 | 0.72 | 0.359 | 0.372 | 0.366 | 0.306 | 0.431 | 0.383 | 0.38 | 0.45 | 0.221 | 0.265
11 | EPLC-272H | 0.326 | 0.327 | 0.356 | 0.213 | 0.345 | 0.368 | 0.26 | 0.314 | 0.26 | 0.276 | 0.322 | 0.332 | 0.45 | 0.349 | 0.311 | 0.346 | 0.236 | 0.305 | 0.277 | 0.288
12 | H3255 | 0.325 | 0.33 | 0.324 | 0.308 | 0.297 | 0.925 | 0.835 | 0.863 | 0.688 | 0.694 | 0.298 | 0.366 | 0.568 | 0.321 | 0.289 | 0.674 | 0.578 | 0.592 | 0.463 | 0.483
13 | HARA | 0.278 | 0.238 | 0.337 | 0.196 | 0.32 | 0.317 | 0.504 | 0.39 | 0.471 | 0.349 | 0.275 | 0.3 | 0.338 | 0.269 | 0.252 | 0.811 | 0.454 | 0.627 | 0.355 | 0.131
14 | HCC-15 | 0.721 | 0.734 | 0.824 | 0.682 | 0.73 | 1.31 | 1.09 | 1.21 | 1.28 | 1.15 | 0.692 | 0.61 | 0.65 | 0.489 | 0.586 | 0.831 | 0.492 | 0.677 | 0.504 | 0.262
15 | HCC-44 | 0.984 | 1 | 0.926 | 0.862 | 1.04 | 1 | 1.01 | 0.982 | 1.08 | 1.02 |  |  |  |  |  | 0.64 | 0.462 | 0.503 |  | 0.495
16 | HCC-78 | 0.486 | 0.457 | 0.534 |  | 0.451 | 0.745 | 0.742 | 0.801 | 0.545 | 0.497 | 0.332 | 0.461 | 0.537 | 0.413 | 0.291 | 0.411 | 0.357 | 0.385 | 0.335 | 0.337
17 | HCC-366 | 0.413 | 0.388 | 0.454 | 0.358 | 0.43 |  | 0.297 | 0.312 | 0.185 | 0.147 | 0.638 | 0.592 | 0.751 | 0.608 | 0.474 | 1.07 | 0.8 | 0.914 | 0.52 | 0.0324
